Assay results from patent US11938139B2, “Pharmaceutical compositions and methods for anxiety, depression and other psychiatric disorders” (LA PharmaTech Inc., priority 2019, dated 2024).

Columns and labels:
Assay type in all cases: in vivo, human
[1] = system: patient with generalized anxiety disorder, panic disorder, and agitation; test: Clinical case, Example 1: patient; conditions: person; fluoxetine alone 4 months, sertraline alone 6 months, alprazolam 2.0 mg/daily alone 4 months
Source text: A patient had generalized anxiety disorder, panic disorder, and agitation. […] Because azelastine is approved for the treatment of allergic rhinitis and asthma and has never been used to treat patients with depression or anxiety, this dramatic clinical outcome from this composition is unexpected. […] This way of activating the GABA system may interact more effectively with other neurotransmitter systems, including noradrenergic, serotonergic, cholinergic, and opioidergic systems. […] This composition of two mechanisms of action for two different classes of diseases provided a new solution for treating psychiatric diseases which are incurable by other options, such traditional SSRIs, NSRIs, benzodiazepines, and the like alone.

[2] = system: patient with major depressive disorder and agitation; test: Clinical case, Example 3: patient; conditions: person; disorder for about 2 years; fluoxetine alone, alprazolam 2.0 mg/daily alone
Source text: (§1) The inventors believe the hypothesis as explained in example 1 above is applicable here as well. In this case, the composition of two mechanisms of action for two different classes of diseases provided a new solution for treating […] major depressive disorder and agitation which could not be treated with other options, such traditional SSRIs, NSRIs, benzodiazepines, and the like alone.

[3] = system: patient with generalized anxiety disorder, agitation and insomnia; test: Clinical case, Example 2: patient; conditions: person; disorder for 8 months; alprazolam 2.0 mg/daily alone
Source text: as §1, with “generalized anxiety diseases” for “major depressive disorder”, “agitation along with insomnia” for “agitation”

Row | SMILES | clinical improvement with single-agent treatment [1] | effectiveness of earlier treatment alone [2] | effectiveness of earlier treatment alone [3]
1 | CNCCC(Oc1ccc(C(F)(F)F)cc1)c1ccccc1 (stereo not drawn) [fluoxetine] | no significant clinical improvement | no treatment, including fluoxetine alone from SSRIs or alprazolam (2.0 mg/daily) alone from benzodiazepines, had been effective | –
2 | CN[C@H]1CC[C@@H](c2ccc(Cl)c(Cl)c2)c2ccccc21 [sertraline] | no significant clinical improvement | – | –
3 | Cc1nnc2n1-c1ccc(Cl)cc1C(c1ccccc1)=NC2 [alprazolam, 8-Chloro-1-methyl-6-phenyl-4H-s-triazolo(4,3-a)(1,4)benzodiazepine] | no significant clinical improvement | no treatment, including fluoxetine alone from SSRIs or alprazolam (2.0 mg/daily) alone from benzodiazepines, had been effective | no treatment had been effective
